Reference: PubChem BioAssay (NCI)
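48-hour exposure; five concentrations; linearly interpolated endpoints. GI50 is the concentration that inhibits growth by half. TGI: total growth inhibition.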

Legend:
Assay in all cases: inhibition of tumour cell growth, NCI panel, 48 h
TK-10 renal = test system: TK-10 renal
IGROV1 ovarian = test system: IGROV1 ovarian
HL-60(TB) leukemia = test system: HL-60(TB) leukemia
EKVX NSCLC = test system: EKVX NSCLC
LOX IMVI melanoma = test system: LOX IMVI melanoma
HCC-2998 colon = test system: HCC-2998 colon
KM12 colon = test system: KM12 colon
NCI-H460 lung = test system: NCI-H460 lung
SF-295 CNS = test system: SF-295 CNS
SF-539 CNS = test system: SF-539 CNS
CAKI-1 renal = test system: CAKI-1 renal
HT29 colon = test system: HT29 colon
CCRF-CEM leukemia = test system: CCRF-CEM leukemia
UACC-62 melanoma = test system: UACC-62 melanoma
SN12C renal = test system: SN12C renal
RPMI-8226 leukemia = test system: RPMI-8226 leukemia
SK-MEL-5 melanoma = test system: SK-MEL-5 melanoma
786-0 renal = test system: 786-0 renal
SK-OV-3 ovarian = test system: SK-OV-3 ovarian
SNB-75 CNS = test system: SNB-75 CNS
SK-MEL-28 melanoma = test system: SK-MEL-28 melanoma
NCI/ADR-RES ovarian = test system: NCI/ADR-RES ovarian
SW-620 colon = test system: SW-620 colon
UO-31 renal = test system: UO-31 renal
MCF7 breast = test system: MCF7 breast
UACC-257 melanoma = test system: UACC-257 melanoma
SK-MEL-2 melanoma = test system: SK-MEL-2 melanoma
HCT-116 colon = test system: HCT-116 colon
DU-145 prostate = test system: DU-145 prostate
OVCAR-4 ovarian = test system: OVCAR-4 ovarian
M14 melanoma = test system: M14 melanoma
HS 578T breast = test system: HS 578T breast
MDA-MB-435 = test system: MDA-MB-435
SF-268 CNS = test system: SF-268 CNS
COLO 205 colon = test system: COLO 205 colon
RXF 393 renal = test system: RXF 393 renal
NCI-H522 lung = test system: NCI-H522 lung
SNB-19 CNS = test system: SNB-19 CNS
OVCAR-8 ovarian = test system: OVCAR-8 ovarian
MALME-3M melanoma = test system: MALME-3M melanoma
MDA-MB-231 breast = test system: MDA-MB-231 breast
HOP-62 NSCLC = test system: HOP-62 NSCLC
A549 NSCLC = test system: A549 NSCLC
OVCAR-3 ovarian = test system: OVCAR-3 ovarian
ACHN renal = test system: ACHN renal
K-562 leukemia = test system: K-562 leukemia
MOLT-4 leukemia = test system: MOLT-4 leukemia
PC-3 prostate = test system: PC-3 prostate
NCI-H23 lung = test system: NCI-H23 lung
T-47D breast = test system: T-47D breast
OVCAR-5 ovarian = test system: OVCAR-5 ovarian
A498 renal = test system: A498 renal
U251 CNS = test system: U251 CNS
HCT-15 colon = test system: HCT-15 colon
HOP-92 NSCLC = test system: HOP-92 NSCLC
BT-549 breast = test system: BT-549 breast
NCI-H226 lung = test system: NCI-H226 lung

CN([O-])c1nc(N(C)[O-])nc(N2CCOCC2)n1.CN([O-])c1nc(N(C)[OH2+])nc(N2CCOCC2)n1.[Fe+3]
GI50 (TK-10 renal): > 100 µM
TGI (TK-10 renal): > 100 µM
GI50 (IGROV1 ovarian): > 100 µM
TGI (IGROV1 ovarian): > 100 µM
GI50 (HL-60(TB) leukemia): > 100 µM
TGI (HL-60(TB) leukemia): > 100 µM
GI50 (EKVX NSCLC): > 100 µM
TGI (EKVX NSCLC): > 100 µM
GI50 (LOX IMVI melanoma): 15.5 µM
TGI (LOX IMVI melanoma): 36 µM
GI50 (HCC-2998 colon): > 100 µM
TGI (HCC-2998 colon): > 100 µM
GI50 (KM12 colon): 57.1 µM
TGI (KM12 colon): > 100 µM
GI50 (NCI-H460 lung): 18.3 µM
TGI (NCI-H460 lung): 34.4 µM
GI50 (SF-295 CNS): 57.6 µM
TGI (SF-295 CNS): > 100 µM
GI50 (SF-539 CNS): > 100 µM
TGI (SF-539 CNS): > 100 µM
GI50 (CAKI-1 renal): > 100 µM
TGI (CAKI-1 renal): > 100 µM
GI50 (HT29 colon): > 100 µM
TGI (HT29 colon): > 100 µM
GI50 (CCRF-CEM leukemia): > 100 µM
TGI (CCRF-CEM leukemia): > 100 µM
GI50 (UACC-62 melanoma): > 100 µM
TGI (UACC-62 melanoma): > 100 µM
GI50 (SN12C renal): > 100 µM
TGI (SN12C renal): > 100 µM
GI50 (RPMI-8226 leukemia): > 100 µM
TGI (RPMI-8226 leukemia): > 100 µM
GI50 (SK-MEL-5 melanoma): > 100 µM
TGI (SK-MEL-5 melanoma): > 100 µM
GI50 (786-0 renal): > 100 µM
TGI (786-0 renal): > 100 µM
GI50 (SK-OV-3 ovarian): > 100 µM
TGI (SK-OV-3 ovarian): > 100 µM
GI50 (SNB-75 CNS): > 100 µM
TGI (SNB-75 CNS): > 100 µM
GI50 (SK-MEL-28 melanoma): 84.8 µM
TGI (SK-MEL-28 melanoma): > 100 µM
GI50 (NCI/ADR-RES ovarian): > 100 µM
TGI (NCI/ADR-RES ovarian): > 100 µM
GI50 (SW-620 colon): > 100 µM
TGI (SW-620 colon): > 100 µM
GI50 (UO-31 renal): > 100 µM
TGI (UO-31 renal): > 100 µM
GI50 (MCF7 breast): > 100 µM
TGI (MCF7 breast): > 100 µM
GI50 (UACC-257 melanoma): > 100 µM
TGI (UACC-257 melanoma): > 100 µM
GI50 (SK-MEL-2 melanoma): 81.8 µM
TGI (SK-MEL-2 melanoma): > 100 µM
GI50 (HCT-116 colon): 96.6 µM
TGI (HCT-116 colon): > 100 µM
GI50 (DU-145 prostate): > 100 µM
TGI (DU-145 prostate): > 100 µM
GI50 (OVCAR-4 ovarian): > 100 µM
TGI (OVCAR-4 ovarian): > 100 µM
GI50 (M14 melanoma): 41.5 µM
TGI (M14 melanoma): > 100 µM
GI50 (HS 578T breast): > 100 µM
TGI (HS 578T breast): > 100 µM
GI50 (MDA-MB-435): 61.8 µM
TGI (MDA-MB-435): > 100 µM
GI50 (SF-268 CNS): 57.4 µM
TGI (SF-268 CNS): > 100 µM
GI50 (COLO 205 colon): > 100 µM
TGI (COLO 205 colon): > 100 µM
GI50 (RXF 393 renal): 68.3 µM
TGI (RXF 393 renal): > 100 µM
GI50 (NCI-H522 lung): 23.8 µM
TGI (NCI-H522 lung): 94.7 µM
GI50 (SNB-19 CNS): > 100 µM
TGI (SNB-19 CNS): > 100 µM
GI50 (OVCAR-8 ovarian): > 100 µM
TGI (OVCAR-8 ovarian): > 100 µM
GI50 (MALME-3M melanoma): 54.9 µM
TGI (MALME-3M melanoma): > 100 µM
GI50 (MDA-MB-231 breast): > 100 µM
TGI (MDA-MB-231 breast): > 100 µM
GI50 (HOP-62 NSCLC): 89.6 µM
TGI (HOP-62 NSCLC): > 100 µM
GI50 (A549 NSCLC): > 100 µM
TGI (A549 NSCLC): > 100 µM
GI50 (OVCAR-3 ovarian): > 100 µM
TGI (OVCAR-3 ovarian): > 100 µM
GI50 (ACHN renal): > 100 µM
TGI (ACHN renal): > 100 µM
GI50 (K-562 leukemia): 48.6 µM
TGI (K-562 leukemia): > 100 µM
GI50 (MOLT-4 leukemia): > 100 µM
TGI (MOLT-4 leukemia): > 100 µM
GI50 (PC-3 prostate): > 100 µM
TGI (PC-3 prostate): > 100 µM
GI50 (NCI-H23 lung): > 100 µM
TGI (NCI-H23 lung): > 100 µM
GI50 (T-47D breast): > 100 µM
TGI (T-47D breast): > 100 µM
GI50 (OVCAR-5 ovarian): > 100 µM
TGI (OVCAR-5 ovarian): > 100 µM
GI50 (A498 renal): 0.0197 µM
TGI (A498 renal): > 100 µM
GI50 (U251 CNS): 27.5 µM
TGI (U251 CNS): > 100 µM
GI50 (HCT-15 colon): > 100 µM
TGI (HCT-15 colon): > 100 µM
GI50 (HOP-92 NSCLC): 0.487 µM
TGI (HOP-92 NSCLC): > 100 µM
GI50 (BT-549 breast): > 100 µM
TGI (BT-549 breast): > 100 µM
GI50 (NCI-H226 lung): > 100 µM
TGI (NCI-H226 lung): > 100 µM
